The structures appear in SMILES notation. Active and inactive are the calls of the source.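 The calls were made as follows: active = toxicity graded low, moderate or high, meaning less radioactive sulfur built into protein than in solvent-only controls; inactive = the rest.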

In this data set the test system is HeLa, 35S-Met/Cys protein incorporation toxicity, 3 h. The experiment in a line: 35S-Met/Cys incorporation reduction in HeLa – HeLa cells, cytotoxicity control for PMI inhibitor project, late-stage follow-up (AID 1620).
For `COc1ccc2c(=O)n(C3CCCC3)sc2c1`, the outcome was “inactive; no toxicity”.
As for `O=c1c2ccc(O)cc2sn1C1CCCC1`, the outcome was “inactive; no toxicity”.
With `O=C(O)CCn1cc(C=C2C(=O)NC(=S)NC2=O)c(-c2cccc(Br)c2)n1` the entry was “inactive; no toxicity”; with `Cc1ccc(N=c2ssnc2Cl)cc1C`, “active; moderate toxicity”; with `COc1ccc(-c2nc(=S)[nH][nH]2)cc1`, “inactive; no toxicity”.
As to `Cc1ccc(-n2sc3ccccc3c2=O)cc1S(=O)(=O)N1CCCCC1`, the outcome was “active; moderate toxicity”.
For the compound `O=c1c2ccccc2sn1-c1cc(S(=O)(=O)N2CCOCC2)ccc1N1CCOCC1`, the outcome is “active; moderate toxicity”.
The value for `Cc1ccc(N=c2ssnc2Cl)c([N+](=O)[O-])c1` was “active; low toxicity”; that for `O=c1c2ccccc2sn1-c1ccc(Cl)c(S(=O)(=O)N2CCOCC2)c1` was “active; moderate toxicity”; that for `O=c1c2c([N+](=O)[O-])cc([N+](=O)[O-])cc2sn1-c1ccccc1F` was “active; low toxicity”.
`CN(C)S(=O)(=O)c1cccc(-n2sc3ccccc3c2=O)c1`: the outcome is “active; moderate toxicity”.
With `Cc1ccc(N=c2ssnc2Cl)cc1[N+](=O)[O-]`, the outcome was “active; moderate toxicity”.
The value for `Cc1ccc(C=Nn2c(-c3ccncc3)n[nH]c2=S)cc1` was “inactive; no toxicity”.
In the case of `O=c1c2ccccc2sn1-c1cccc(C(F)(F)F)c1`, the outcome is “active; highly toxic”.
Consider `O=c1c2c([N+](=O)[O-])cc([N+](=O)[O-])cc2sn1-c1ccc(F)c(Cl)c1`, for which the outcome is “inactive; no toxicity”.
As for `O=c1c2ccccc2sn1-c1cc(S(=O)(=O)N2CCOCC2)ccc1N1CCCC1`, the outcome was “active; moderate toxicity”.
The value for `O=[N+]([O-])c1ccc(N=c2ssnc2Cl)c2ccccc12` was “active; low toxicity”.
Turning to `CCSc1n[nH]c(=S)s1`, the outcome is “inactive; no toxicity”.
With `O=c1c2c([N+](=O)[O-])cc([N+](=O)[O-])cc2sn1-c1ccc(F)cc1` the entry was “active; low toxicity”; with `CN(C)c1ccc(N=c2ssnc2Cl)cc1`, “active; moderate toxicity”.
With `COc1cc(N=c2ssnc2Cl)c(OC)cc1Cl` the entry was “active; low toxicity”.
Regarding `N#Cc1ccc(N=c2ssnc2Cl)cc1`, the outcome was “inactive; no toxicity”.
With `Cc1cccc(-n2sc3cc(F)ccc3c2=O)c1C`, the outcome was “active; moderate toxicity”.
For `Cc1ccc(C)c(-n2sc3ccc(F)cc3c2=O)c1`, the outcome was “active; moderate toxicity”.
With `COc1ccc(-c2nc(=S)[nH][nH]2)cc1OC` the entry was “inactive; no toxicity”; with `S=c1nc(-c2ccccc2Br)[nH][nH]1`, “inactive; no toxicity”; with `O=c1c2ccc(F)cc2sn1-c1cc(Cl)ccc1Cl`, “active; highly toxic”.
As to `O=C(NCc1ccccc1)c1cccc(-n2sc3ccccc3c2=O)c1`, the outcome is “inactive; no toxicity”.
With `O=c1c2ccccc2sn1-c1ccc(Cl)cc1` the entry was “active; highly toxic”.
The value for `COc1cccc(-n2sc3ccccc3c2=O)c1` was “active; low toxicity”.
With `O=c1c2ccccc2sn1-c1cccc(S(=O)(=O)Nc2ccc(Cl)cc2)c1` the entry was “active; moderate toxicity”; with `O=C(O)c1cccc(-n2sc3ccccc3c2=O)c1`, “active; moderate toxicity”; with `CN(C)c1cccc(-n2sc3ccccc3c2=O)c1`, “inactive; no toxicity”.
Take `S=c1nc(-c2cccc(Br)c2)[nH][nH]1`: the outcome is “inactive; no toxicity”.
In the case of `O=c1c2ccccc2sn1-c1cccc(Cl)c1`, the outcome was “active; highly toxic”.
With `N#CC1=C2SCN(Cc3ccccc3)CN2C(=O)CC1c1ccc2c(c1)OCO2` (stereo not drawn) the entry was “inactive; no toxicity”.
The value for `Clc1ccc(N=c2ssnc2Cl)cc1Cl` was “active; highly toxic”.
On to `CC(C)(C)c1ccc(N=c2ssnc2Cl)cc1`, for which the outcome is “active; moderate toxicity”.
As for `COc1ccc(N=c2ssnc2Cl)cc1OC`, the outcome is “active; highly toxic”.
`O=c1c2cc(F)ccc2sn1-c1ccccc1`: the outcome is “active; moderate toxicity”.
With `Clc1cccc(N=c2ssnc2Cl)c1`, the outcome is “active; low toxicity”.
With `Nc1ccccc1N=c1ssnc1Cl` the entry was “inactive; no toxicity”; with `Cc1ccc(N=c2ssnc2Cl)cc1`, “inactive; no toxicity”.
With `O=C(O)c1ccccc1NS(=O)(=O)c1cccc(-n2sc3ccccc3c2=O)c1` the entry was “active; high toxicity”; with `Clc1nss/c1=N\c1nccs1`, “inactive; no toxicity”; with `O=C1c2ccccc2SC1c1ccccc1` (stereo not drawn), “active; low toxicity”.
In the case of `O=c1c2ccccc2sn1-c1nccs1`, the outcome is “inactive; no toxicity”.
The value for `COc1cc([N+](=O)[O-])ccc1N=c1ssnc1Cl` was “active; moderate toxicity”.
With `Cc1c(Cl)cccc1-n1sc2cc([N+](=O)[O-])cc(OCC(F)(F)F)c2c1=O`, the outcome was “active; low toxicity”.
Regarding `Clc1nssc1=Nc1ccc(Br)cc1`, the outcome was “active; high toxicity”.
With `Cc1ccc(C)c(-n2sc3cc(F)ccc3c2=O)c1` the entry was “active; high toxicity”.
The value for `COc1cc(-c2nc(=S)[nH][nH]2)cc(OC)c1OC` was “inactive; no toxicity”; that for `O=c1c2ccccc2sn1-c1ccccc1` was “inactive; no toxicity”; that for `O=[N+]([O-])c1ccc(N=c2ssnc2Cl)c([N+](=O)[O-])c1` was “inactive; no toxicity”.
With `COc1ccc(OC)c(N=c2ssnc2Cl)c1` the entry was “inactive; no toxicity”.
Consider `Cc1[nH]n(-c2ccccc2)c(=S)c1C=Nc1cccc([N+](=O)[O-])c1`, for which the outcome was “inactive; no toxicity”.
For `Oc1ccc(N=c2ssnc2Cl)cc1`, the outcome was “inactive; no toxicity”.
In the case of `O=c1c2ccccc2sn1-c1cccc(I)c1`, the outcome was “active; highly toxic”.
The value for `COc1cc(N=c2ssnc2Cl)cc(OC)c1OC` was “inactive; no toxicity”.
Turning to `COc1cc(N=c2ssnc2Cl)cc(OC)c1`, the outcome was “inactive; no toxicity”.
In the case of `Cc1ccc(N=c2ssnc2Cl)nc1`, the outcome is “active; highly toxic”.
With `CN(C)c1cccc(N=c2ssnc2Cl)c1`, the outcome was “active; highly toxic”.
Regarding `Cc1ccc(C)c(-n2sc3ccccc3c2=O)c1`, the outcome is “active; moderate toxicity”.
The value for `CCOc1ccc(-c2nc(=S)[nH][nH]2)cc1` was “inactive; no toxicity”.
Consider `COC(=O)c1cccc(-n2sc3ccccc3c2=O)c1`, for which the outcome was “active; moderate toxicity”.
Turning to `Clc1nssc1=Nc1ccccc1`, the outcome was “inactive; no toxicity”.
On to `Cc1ccnc(-n2sc3ccccc3c2=O)n1`, for which the outcome was “inactive; no toxicity”.
`Cc1cccc(N=c2ssnc2Cl)c1`: the outcome was “active; moderate toxicity”.
The value for `S=c1nc(C2COc3ccccc3O2)[nH][nH]1` (stereo not drawn) was “inactive; no toxicity”; that for `Clc1nss/c1=N\c1nc2ccccc2s1` was “active; highly toxic”.
The value for `FC(F)(F)c1ccc(N=c2ssnc2Cl)cc1` was “active; moderate toxicity”; that for `OCc1ccccc1N=c1ssnc1Cl` was “inactive; no toxicity”.
With `Clc1ccc(N=c2ssnc2Cl)cc1` the entry was “active; highly toxic”; with `S=c1nc(-c2cccc(Cl)c2)[nH][nH]1`, “inactive; no toxicity”; with `O=c1c2ccccc2sn1-c1ccc(F)cc1`, “active; moderate toxicity”.
With `Clc1ccc(Nc2ccccc2N=c2ssnc2Cl)cc1`, the outcome is “active; highly toxic”.
With `Clc1nss/c1=N\c1nncs1` the entry was “active; moderate toxicity”; with `Cc1cccc(-n2sc3ccccc3c2=O)c1`, “active; moderate toxicity”; with `CCc1cc(CC)c(N=c2ssnc2Cl)c(CC)c1`, “active; highly toxic”.
Consider `Cc1ccc(C)n1-c1nc(=S)[nH][nH]1`, for which the outcome is “inactive; no toxicity”.
With `Cc1ccc(C)c(N2Cc3ccccc3C2=O)c1` the entry was “active; low toxicity”.
In the case of `Cc1ccc(C)c(-n2[nH]c3ccccc3c2=O)c1`, the outcome was “inactive; no toxicity”.
On to `O=c1c2ccccc2sn1-c1ccc2ccccc2c1`, for which the outcome was “active; high toxicity”.

The values above are taken from PubChem BioAssay AID1620 (Sanford-Burnham Center for Chemical Genomics, 2009).
